One assay deals with T1, recombinant human ER-α (Homo sapiens, UniProt P03372).
T1 construct: purchased Invitrogen (Carlsbad, Calif.)
T1 sequence (P03372 1-595): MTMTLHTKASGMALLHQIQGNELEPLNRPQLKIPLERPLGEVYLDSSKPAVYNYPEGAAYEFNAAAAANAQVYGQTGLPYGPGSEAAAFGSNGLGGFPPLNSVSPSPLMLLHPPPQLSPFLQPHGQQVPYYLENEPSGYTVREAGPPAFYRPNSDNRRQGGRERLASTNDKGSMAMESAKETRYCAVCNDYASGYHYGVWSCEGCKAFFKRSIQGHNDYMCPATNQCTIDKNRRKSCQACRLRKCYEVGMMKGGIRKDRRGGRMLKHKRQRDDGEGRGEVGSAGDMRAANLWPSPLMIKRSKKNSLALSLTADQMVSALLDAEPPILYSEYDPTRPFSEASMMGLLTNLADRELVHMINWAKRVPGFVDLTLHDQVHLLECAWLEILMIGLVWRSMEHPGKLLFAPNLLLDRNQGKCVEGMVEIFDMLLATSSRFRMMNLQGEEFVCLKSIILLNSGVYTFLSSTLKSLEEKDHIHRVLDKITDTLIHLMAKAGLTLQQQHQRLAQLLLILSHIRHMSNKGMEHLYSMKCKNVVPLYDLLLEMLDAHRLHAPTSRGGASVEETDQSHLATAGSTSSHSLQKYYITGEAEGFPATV
Briefly: Binding affinity for recombinant human ER-α (fluorescence polarization, ES2 displacement). Conditions: for IC50: read-out: binding affinities for ER-α (IC50). How it is done: (§1) Binding Affinities for Recombinant Human ER-α and ER-β.
(§2) The binding affinities of ER-α and ER-β were determined by measuring the change of polarization value when the fluorescent estrogen ligand, ES2, was displaced by the tested compounds. Experimental procedures were consistent with the protocol provided by Invitrogen. The fluorescent estrogen ligand, ES2, was provided in methanol/water (4:1, v/v) with the concentration of 1800 nM. Recombinant human ER-α and ER-β were provided in buffer (50 mM bis-tris propane, 400 mM KCl, 2 mM DTT, 1 mM EDTA and 10% glycerol), with the concentration of 734 nM and 3800 nM, respectively. All tested samples were dissolved in either methanol or DMSO. The sample solutions (1 pt) were mixed well with 49 pt of ES2 screening buffer (100 mM potassium phosphate, 100 μg/mL BGG and 0.02% NaN3). The ER-α/ES2 complex was prepared with the fluorescent estrogen ligand ES2, human recombinant ER and ES2 screening buffer with the concentrations of 9 nM ES2 and 30 nM ER-α. The ER-β/ES2 complex was prepared with the fluorescent estrogen ligand ES2, human recombinant ER-β and ES2 screening buffer with the concentrations of 9 nM ES2 and 20 nM ER-ft Reactions were initiated by adding ER/ES2 complex (50 μL) to bring the incubation volume to 100 μL and incubated for 2 h avoiding light. […] Excitation-emission wavelengths for fluorescence polarization were […]. The polarization values in the presence of the test competitors were compared with those in control, in which the competitor was replaced with vehicle. The extent of competition was expressed as the percentage of remaining polarization compared to the control.
(In fluorescence polarisation assays a small probe gives low polarisation when free and higher when bound to something large.)

The target in assay [1] is T2, recombinant human aromatase (CYP19) (Homo sapiens, UniProt P11511).
T2 construct: purchased BD Biosciences (San Jose, Calif.)
T2 sequence (P11511 1-503): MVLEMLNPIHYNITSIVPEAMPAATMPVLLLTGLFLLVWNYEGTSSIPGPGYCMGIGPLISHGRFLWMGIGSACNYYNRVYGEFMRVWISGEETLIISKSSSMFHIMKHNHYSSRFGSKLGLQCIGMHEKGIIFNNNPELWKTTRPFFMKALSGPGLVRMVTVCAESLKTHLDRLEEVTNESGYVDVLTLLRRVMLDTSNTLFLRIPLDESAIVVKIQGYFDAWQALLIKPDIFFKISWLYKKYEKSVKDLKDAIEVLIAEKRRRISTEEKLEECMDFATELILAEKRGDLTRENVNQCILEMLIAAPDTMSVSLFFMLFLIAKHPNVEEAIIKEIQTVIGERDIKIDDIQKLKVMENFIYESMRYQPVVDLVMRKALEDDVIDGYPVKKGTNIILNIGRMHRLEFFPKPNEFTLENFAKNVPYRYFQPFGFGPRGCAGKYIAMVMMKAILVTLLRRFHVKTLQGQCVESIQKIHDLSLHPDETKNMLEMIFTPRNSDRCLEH
The assay is described as follows: Inhibition of recombinant human aromatase (CYP19) by microsomal incubations (MFC fluorometric substrate). The format is biochemical. The note with it: for aromatase percent inhibition: at 50000 nM compound, 50 µM; for times more potent than 7 against aromatase: ratio of IC50 values vs compound 7. How it is done:
Inhibition of Recombinant Human Aromatase (CYP19) by Microsomal Incubations.
All tested samples were dissolved in either methanol or DMSO. […] All the reactions were stopped by adding 0.1 M tris base dissolved in acetonitrile (75 μL). […] The extent of enzyme inhibition was expressed as the percentage of remaining enzyme activity compared to the control.

A further assay deals with T3, recombinant human ER-β (Homo sapiens, UniProt Q92731).
T3 construct: purchased Invitrogen (Carlsbad, Calif.)
The assay is described as follows: Binding affinity for recombinant human ER-β (fluorescence polarization, ES2 displacement). The note with it: for IC50: read-out: binding affinities for ER-β (IC50); for inhibition at 100 µM: 2 h, at 100000 nM compound, read-out: ER-β percent competition. The protocol: as §1, §2

[2] abbreviates: Table 1, mean of at least three experiments.
[3] abbreviates: Table 1, determined only for compounds with >90% competition.
[4] abbreviates: Table 2, determined for compounds with inhibition higher than 90%.

T3 sequence (Q92731 whole entry): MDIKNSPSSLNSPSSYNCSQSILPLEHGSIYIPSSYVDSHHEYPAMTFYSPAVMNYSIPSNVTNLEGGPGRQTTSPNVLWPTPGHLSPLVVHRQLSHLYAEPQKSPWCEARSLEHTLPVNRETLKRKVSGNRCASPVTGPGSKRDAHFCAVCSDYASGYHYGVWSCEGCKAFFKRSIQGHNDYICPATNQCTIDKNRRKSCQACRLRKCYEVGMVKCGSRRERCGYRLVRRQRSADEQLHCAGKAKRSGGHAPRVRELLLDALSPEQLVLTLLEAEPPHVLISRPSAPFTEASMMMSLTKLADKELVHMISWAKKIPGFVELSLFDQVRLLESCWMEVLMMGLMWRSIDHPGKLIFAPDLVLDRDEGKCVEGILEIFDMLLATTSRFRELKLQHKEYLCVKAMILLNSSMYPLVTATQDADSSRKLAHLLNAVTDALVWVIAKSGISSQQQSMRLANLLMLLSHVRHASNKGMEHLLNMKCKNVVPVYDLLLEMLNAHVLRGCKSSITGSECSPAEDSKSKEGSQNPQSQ

On to `N#CCC(=C(c1ccc(O)cc1)c1ccc(O)cc1)c1ccc(O)cc1` [Compound 17a, 3,4,4-Tris(4-hydroxyphenyl)but-3-enenitrile], for which the ER-α percent competition at recombinant human ER-α (Table 1, at 100 μM compound) is recorded as 0% competition. In addition, the IC50 in assay [1] (setting [2]) was found to be 15200 ± 300 nM.
On to `Oc1ccc(C(Cn2ccnc2)=C(c2ccc(O)cc2)c2ccc(O)cc2)cc1` [Compound 18a, 4,4′,4″-(3-(1H-Imidazol-1-yl)prop-1-ene-1,1,2-triyl)triphenol], for which the EC50 at recombinant human ER-β (setting [3]) is 73.6 ± 29.9 nM; on recombinant human ER-α (setting [3]), 97.8 ± 42.3 nM. Also, the half-inhibitory concentration (IC50) on recombinant human ER-β is 56.3 to 73.6 nM; at recombinant human ER-α it was 85.2 to 97.8 nM; in assay [1] (setting [2]) it was 60 ± 4.1 nM.
In the case of `Oc1ccc(C(=C(Cn2ccnc2)c2ccc(O)c(F)c2)c2ccc(O)cc2)cc1` [Compound 18b, 4,4′-(2-(3-Fluoro-4-hydroxyphenyl)-3-(1H-imidazol-1-yl)prop-1-ene-1,1-diyl)diphenol], the EC50 worked out at 56.3 ± 17.8 nM on recombinant human ER-β (setting [3]) and 85.2 ± 14.2 nM on recombinant human ER-α (setting [3]). Further, the IC50 is 56.3 to 73.6 nM on recombinant human ER-β, 85.2 to 97.8 nM on recombinant human ER-α and 94.4 ± 3.5 nM in assay [1] (setting [2]).
Consider `Oc1ccc(C(Cn2cncn2)=C(c2ccc(O)cc2)c2ccc(O)cc2)cc1` [Compound 19a, 4,4′,4″-(3-(1H-1,2,4-Triazol-1-yl)prop-1-ene-1,1,2-triyl)triphenol], for which the ER-α percent competition on recombinant human ER-α (Table 1, at 100 μM compound) is 45% competition. The IC50 in assay [1] (setting [2]) was 3030 ± 150 nM.
Consider `Oc1ccc(C(=C(Cn2cncn2)c2ccc(O)c(F)c2)c2ccc(O)cc2)cc1` [Compound 19b, 4,4′-(2-(3-Fluoro-4-hydroxyphenyl)-3-(1H-1,2,4-triazol-1-yl)prop-1-ene-1,1-diyl)diphenol], for which the ER-α percent competition on recombinant human ER-α (Table 1, at 100 μM compound) stood at 2% competition. Also, the IC50 in assay [1] (setting [2]) was determined as 2980 ± 50 nM.
As to `Oc1ccc(C(Cn2cnnc2)=C(c2ccc(O)cc2)c2ccc(O)cc2)cc1` [Compound 20a, 4,4′,4″-(3-(4H-1,2,4-Triazol-4-yl)prop-1-ene-1,1,2-triyl)triphenol], the EC50 at recombinant human ER-β (setting [3]) was determined as 1080 ± 100 nM; at recombinant human ER-α (setting [3]), 943 ± 285 nM. For the same compound, the IC50 in assay [1] (setting [2]) amounted to 12500 ± 400 nM.
Take `Oc1ccc(C(=C(Cn2cnnc2)c2ccc(O)c(F)c2)c2ccc(O)cc2)cc1` [Compound 20b, 4,4′-(2-(3-Fluoro-4-hydroxyphenyl)-3-(4H-1,2,4-triazol-4-yl)prop-1-ene-1,1-diyl)diphenol]: the ER-α percent competition at recombinant human ER-α (Table 1, at 100 μM compound) was 0% competition. The IC50 in assay [1] (setting [2]) turned out to be 14200 ± 1100 nM.
As to `Nc1ccc(C(Cn2ccnc2)=C(c2ccc(O)cc2)c2ccc(O)cc2)cc1` [Compound 26, 4,4′-(2-(4-Aminophenyl)-3-(1H-imidazol-1-yl)prop-1-ene-1,1-diyl)diphenol], the results for the EC50 on recombinant human ER-β (setting [3]) and on recombinant human ER-α (setting [3]) were 296 ± 154 nM and 1830 ± 910 nM, respectively. Besides, the IC50 in assay [1] (setting [2]) turned out to be 5.24 ± 0.41 nM.
Take `Nc1ccc(C(Cn2cncn2)=C(c2ccc(O)cc2)c2ccc(O)cc2)cc1` [Compound 27, 4,4′-(2-(4-Aminophenyl)-3-(1H-1,2,4-triazol-1-yl)prop-1-ene-1,1-diyl)diphenol]: at recombinant human ER-α (Table 1, at 100 μM compound), the ER-α percent competition came out at 0% competition. In assay [1] (setting [2]), the IC50 stood at 104 ± 9 nM.
Consider `Nc1ccc(C(Cn2cnnc2)=C(c2ccc(O)cc2)c2ccc(O)cc2)cc1` [Compound 28, 4,4′-(2-(4-Aminophenyl)-3-(4H-1,2,4-triazol-4-yl)prop-1-ene-1,1-diyl)diphenol], for which the ER-α percent competition on recombinant human ER-α (Table 1, at 100 μM compound) came out at 13% competition. Besides, in assay [1] (setting [2]), the IC50 is 17.7 ± 1.2 nM.
Turning to `Oc1ccc(C(=C(Cn2ccnc2)c2cccc(O)c2)c2ccc(O)cc2)cc1` [Compound 32, 4,4′-(2-(3-Hydroxyphenyl)-3-(1H-imidazol-1-yl)prop-1-ene-1,1-diyl)diphenol], the ER-α percent competition at recombinant human ER-α (Table 1, at 100 μM compound) is 0% competition. Also, in assay [1] (setting [2]), the 50% inhibitory concentration (IC50) is 60.4 ± 1.7 nM.
Turning to `Nc1cccc(C(Cn2ccnc2)=C(c2ccc(O)cc2)c2ccc(O)cc2)c1` [Compound 35, 4,4′-(2-(3-Aminophenyl)-3-(1H-imidazol-1-yl)prop-1-ene-1,1-diyl)diphenol], on recombinant human ER-α (Table 1, at 100 μM compound), the ER-α percent competition is 60% competition. Further, the IC50 in assay [1] (setting [2]) was 439 ± 16 nM.
With `CC(=C(c1ccc(O)cc1)c1ccc(O)cc1)c1ccc([N+](=O)[O-])cc1` [Compound 37a, 4-(1-(4-Hydroxyphenyl)-2-(4-nitrophenyl)prop-1-enyl)phenol], the inhibition at 100 µM on recombinant human ER-β (Table 2) was 55%. The ER-α percent competition at recombinant human ER-α (Table 2, at 100000 nM compound) is reported as 19% competition. In addition, in assay [1] (Table 2), the aromatase percent inhibition was 75 % inhibition.
On to `CCC(=C(c1ccc(O)cc1)c1ccc(O)cc1)c1ccc([N+](=O)[O-])cc1` [Compound 37b, 4-(1-(4-Hydroxyphenyl)-2-(4-nitrophenyl)but-1-enyl)phenol], for which the inhibition at 100 µM on recombinant human ER-β (Table 2) came out at 66%. Further, the ER-α percent competition at recombinant human ER-α (Table 2, at 100000 nM compound) is given as 40% competition. In addition, the aromatase percent inhibition in assay [1] (Table 2) was found to be 78 % inhibition.
On to `CC(=C(c1ccc(N)cc1)c1ccc(N)cc1)c1ccc([N+](=O)[O-])cc1` [Compound 37c, 4-(1-(4-Aminophenyl)-2-(4-nitrophenyl)prop-1-enyl)benzenamine], for which the concentration for a half-maximal effect (EC50) was found to be 486 ± 240 nM on recombinant human ER-β (Table 2) and 213 ± 53.7 nM on recombinant human ER-α (Table 2). Moreover, the IC50 in assay [1] (setting [4]) turned out to be 221 nM. For the same compound, in assay [1], the “times more potent than 7 against aromatase” value is “about 113 times”.
The like results for `CCC(=C(c1ccc(N)cc1)c1ccc(N)cc1)c1ccc([N+](=O)[O-])cc1` [Compound 37d, 4-(1-(4-Aminophenyl)-2-(4-nitrophenyl)but-1-enyl)benzenamine] were, in that order, 70.8 ± 5.2 nM, 72.1 ± 42.6 nM, 62.2 ± 7.8 nM and ~400 times.
As for `CC(=C(c1ccc(O)cc1)c1ccc(O)cc1)c1ccc(N)cc1` [Compound 38a, 4-(2-(4-Aminophenyl)-1-(4-hydroxyphenyl)prop-1-enyl)phenol], the figures for the EC50 at recombinant human ER-β (Table 2) and at recombinant human ER-α (Table 2) were 857 ± 389 nM and 11000 ± 827 nM, respectively. In addition, the IC50 in assay [1] (setting [4]) was found to be 230 nM.
Regarding `CCC(=C(c1ccc(O)cc1)c1ccc(O)cc1)c1ccc(N)cc1` [Compound 38b, 4-(2-(4-Aminophenyl)-1-(4-hydroxyphenyl)but-1-enyl)phenol], the EC50 on recombinant human ER-β (Table 2) was determined as 1260 ± 424 nM; at recombinant human ER-α (Table 2), 1710 ± 630 nM. Besides, the IC50 in assay [1] (setting [4]) was 8.8 nM.
As to `CC(=C(c1ccc(N)cc1)c1ccc(N)cc1)c1ccc(N)cc1` [Compound 38c, 4-(1,2-Bis(4-aminophenyl)prop-1-enyl)benzenamine], at recombinant human ER-β (Table 2), the inhibition at 100 µM is 77%. The ER-α percent competition on recombinant human ER-α (Table 2, at 100000 nM compound) was 31% competition. Further, the IC50 in assay [1] (setting [4]) came to 177 ± 20.2 nM.
Take `CCC(=C(c1ccc(N)cc1)c1ccc(N)cc1)c1ccc(N)cc1` [Compound 38d, 4-(1,2-Bis(4-aminophenyl)but-1-enyl)benzenamine]: on recombinant human ER-β (Table 2), the inhibition at 100 µM was determined as 76%. Also, on recombinant human ER-α (Table 2, at 100000 nM compound), the ER-α percent competition was 25% competition. Moreover, the IC50 in assay [1] (setting [4]) was 13.4 ± 3 nM.

What is called IC50 is the concentration needed to halve the response being measured. As a reminder, the EC50 is the concentration giving half of the maximal effect.

(Values after patent publication US9845295B2, “Triphenylethylene compounds and uses thereof” (Purdue Research Foundation, priority 2015, dated 2017).)
